{
  "source": "patent US20090312281A1",
  "about": "“PROCESS FOR THE PREPARATION OF A PULVERULENT COMPOSITION AND PRODUCT AS OBTAINED” (INNOV'IA, priority 2006, published 2009)",
  "origin": "cited, not measured here",
  "data": [
    {"smiles": "O=C(CO)[C@@H](O)[C@H](O)[C@H](O)CO", "note": "[Fructose]", "values": [
      {"measurement": "Solubility in water at 60° C. (% weight/weight)", "result": 89, "unit": "% weight/weight"}
    ]},
    {"smiles": "OC[C@H]1O[C@@](CO)(O[C@H]2O[C@H](CO)[C@@H](O)[C@H](O)[C@H]2O)[C@@H](O)[C@@H]1O", "note": "[Sucrose]", "values": [
      {"measurement": "Solubility in water at 60° C. (% weight/weight)", "result": 71, "unit": "% weight/weight"}
    ]}
  ]
}
